In US20260184706A1, “PHENYLSULFONAMIDE DERIVATIVES, PREPARATION METHOD THEREFOR, AND PHARMACEUTICAL COMPOSITION FOR PREVENTION OR TREATMENT OF CANCER CONTAINING SAME AS ACTIVE INGREDIENT” (Korea Research Institute of Chemical Technology, priority 2022, published 2026):

The compounds below were run against recombinant human GCN2 protein (Homo sapiens, UniProt Q9P2K8) (assay: General control nonderepressible 2 (GCN2) inhibitory capacity, 33P-ATP filter assay). Details: recombinant human GCN2, 70 uM [gamma-33P-ATP], 40 minutes, room temperature.
Chain of recombinant human GCN2 protein (Q9P2K8 whole entry): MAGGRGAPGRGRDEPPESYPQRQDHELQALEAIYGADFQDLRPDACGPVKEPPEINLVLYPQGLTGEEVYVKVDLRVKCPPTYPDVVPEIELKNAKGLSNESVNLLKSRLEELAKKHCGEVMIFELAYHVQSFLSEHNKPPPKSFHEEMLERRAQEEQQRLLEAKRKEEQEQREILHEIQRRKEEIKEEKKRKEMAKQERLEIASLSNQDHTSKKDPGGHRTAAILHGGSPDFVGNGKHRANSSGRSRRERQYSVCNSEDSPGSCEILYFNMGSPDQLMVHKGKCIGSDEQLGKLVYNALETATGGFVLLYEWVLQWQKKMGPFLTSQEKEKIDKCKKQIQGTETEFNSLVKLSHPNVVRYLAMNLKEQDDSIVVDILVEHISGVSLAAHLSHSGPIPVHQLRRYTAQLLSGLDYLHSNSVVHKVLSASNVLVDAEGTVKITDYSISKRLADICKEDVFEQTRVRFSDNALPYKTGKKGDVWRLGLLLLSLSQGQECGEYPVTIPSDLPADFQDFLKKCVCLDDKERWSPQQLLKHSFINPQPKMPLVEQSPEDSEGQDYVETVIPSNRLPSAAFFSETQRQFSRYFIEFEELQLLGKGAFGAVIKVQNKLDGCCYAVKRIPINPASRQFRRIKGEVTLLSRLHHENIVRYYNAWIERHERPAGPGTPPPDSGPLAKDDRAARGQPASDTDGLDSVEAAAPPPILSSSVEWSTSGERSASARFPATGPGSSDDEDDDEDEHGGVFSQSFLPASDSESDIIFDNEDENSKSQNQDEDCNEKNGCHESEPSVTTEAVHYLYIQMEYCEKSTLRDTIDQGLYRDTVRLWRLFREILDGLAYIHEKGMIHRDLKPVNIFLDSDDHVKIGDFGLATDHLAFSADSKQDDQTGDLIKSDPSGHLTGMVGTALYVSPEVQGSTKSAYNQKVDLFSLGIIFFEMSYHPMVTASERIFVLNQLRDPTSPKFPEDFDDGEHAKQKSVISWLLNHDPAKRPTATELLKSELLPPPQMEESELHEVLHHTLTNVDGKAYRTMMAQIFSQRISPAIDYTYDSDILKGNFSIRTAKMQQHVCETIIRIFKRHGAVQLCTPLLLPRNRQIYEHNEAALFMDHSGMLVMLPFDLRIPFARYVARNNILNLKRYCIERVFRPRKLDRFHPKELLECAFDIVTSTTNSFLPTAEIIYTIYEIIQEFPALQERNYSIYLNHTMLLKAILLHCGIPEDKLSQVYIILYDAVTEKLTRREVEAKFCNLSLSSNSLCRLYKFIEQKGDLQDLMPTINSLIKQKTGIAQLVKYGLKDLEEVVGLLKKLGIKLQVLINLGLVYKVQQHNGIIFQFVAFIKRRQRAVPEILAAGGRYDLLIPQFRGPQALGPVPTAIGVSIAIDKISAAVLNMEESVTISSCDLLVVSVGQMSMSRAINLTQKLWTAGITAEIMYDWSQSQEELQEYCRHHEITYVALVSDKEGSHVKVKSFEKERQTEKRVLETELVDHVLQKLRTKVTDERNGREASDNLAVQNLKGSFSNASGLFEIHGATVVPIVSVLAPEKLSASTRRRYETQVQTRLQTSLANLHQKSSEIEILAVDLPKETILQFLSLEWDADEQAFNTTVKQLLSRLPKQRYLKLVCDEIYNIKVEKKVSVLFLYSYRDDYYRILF
Type: biochemical
Protocol: <Experimental Example 2> Evaluation of General Control Nonderepressible 2 (GCN2) Inhibitory Capacity
A recombinant human GCN2 protein was mixed with the compound in a reaction solution (20 mM Tris/HCl pH8.5, 0.2 mM EDTA, 0.1% Tween, 100 mM NaCl, 300 μM RSRSRSRSRSRSRSR, 10 mM Magnesium acetate, 70 uM [gamma-33P-ATP]) and reacted at room temperature for 40 minutes. Then, the reaction was terminated by adding phosphoric acid (0.5%) to the reaction mixture, and 10 ul of the reaction solution was dropped onto a P30 filter. The filter was washed four times in a 0.425% phosphoric acid solution for 4 minutes, then washed once more in methanol, dried, and the GCN2 activity was measured by scintillation counting. […] The compound was diluted by 1/3 from the highest concentration of 1 uM and treated with a total of 9 concentrations to evaluate the degree of inhibition.

Row | IC50 | Structure (SMILES)
1 | 100 to 300 nM | COc1ncc(Cl)cc1S(=O)(=O)Nc1ccc(F)c(-n2cc(CO)c3nc(N)ncc3c2=O)c1F [Example 23, N-(3-(2-amino-8-hydroxymethyl)-5-oxopirido[4,3-d]pyrimidin-6(5H)-2,4-difluorophenyl)-5-chloro-2-methoxypyridine-3-sulfonamide]
2 | 100 to 300 nM | Nc1ncc2c(n1)N(C1CC1)CN(c1c(F)ccc(NS(=O)(=O)c3cc(Cl)ccc3Cl)c1F)C2=O [Example 59, N-(3-(7-amino-1-cyclopropyl-4-oxo-1,4-dihydropyrimido[4,5-d]pyrimidin-3(2H)-yl)-2,4-difluorophenyl)-2,5-dichlorobenzenesulfonamide]
3 | 100 to 300 nM | Cn1c(=O)n(-c2c(F)ccc(NS(=O)(=O)c3cc(Cl)ccc3Cl)c2F)c(=O)c2cnc(N)nc21 [Example 42, N-(3-(7-amino-1-methyl-2,4-dioxo-1,4-dihydropyrimido[4,5-d]pyrimidin-3(2H)-yl)-2,4-difluorophenyl)-2,5-dichlorobenzenesulfonamide]
4 | 300 to 1000 nM | Cc1nn(C)c(Cl)c1S(=O)(=O)Nc1ccc(F)c(-n2c(=O)c3cnc(N)nc3n(C3CC3)c2=O)c1F [Example 66, N-(3-(7-amino-1-cyclopropyl-2,4-dioxo-1,4-dihydropyrimido[4,5-d]pyrimidin-3(2H)-yl)-2,4-difluorophenyl)-5-chloro-1,3-dimethyl-1H-pyrazole-4-sulfonamide]
5 | 100 to 300 nM | Cc1nn(C)c(Cl)c1S(=O)(=O)Nc1ccc(F)c(-n2ccc3nc(N)ncc3c2=O)c1F [Example 30, N-(3-(2-amino-5-oxopirido[4,3-d]pyrimidin-6(5H)-yl)-2,4-difluorophenyl)-5-chloro-1,3-dimethyl-1H-pyrazole-4-sulfonamide]
6 | 100 to 300 nM | CN1CN(c2c(F)ccc(NS(=O)(=O)c3cccc4ccccc34)c2F)C(=O)c2cnc(N)nc21 [Example 41, N-(3-(7-amino-1-methyl-4-oxo-1,4-dihydropyrimido[4,5-d]pyrimidin-3(2H)-yl)-2,4-difluorophenyl)naphthalene-1-sulfonamide]
7 | > 1000 nM | Cc1nn(-c2c(F)ccc(NS(=O)(=O)c3cc(Cl)cc(CO)c3Cl)c2F)c(=O)c2cnc(N)nc12 [Example 37, N-(3-(2-amino-8-methyl-5-oxopyrimido[4,5-d]pyridazine-6(5H)-yl)-2,4-difluorophenyl)-2,5-dichloro-3-(hydroxymethyl)benzene sulfonamide]
8 | 100 to 300 nM | Nc1ncc2c(n1)N(C1CC1)CN(c1c(F)ccc(NS(=O)(=O)c3cccc4ccccc34)c1F)C2=O [Example 61, N-(3-(7-amino-1-cyclopropyl-4-oxo-1,4-dihydropyrimido[4,5-d]pyrimidin-3(2H)-yl)-2,4-difluorophenyl)naphthalene-1-sulfonamide]
9 | 100 to 300 nM | COc1ncc(Cl)cc1S(=O)(=O)Nc1ccc(F)c(N2CN(C)c3nc(N)ncc3C2=O)c1F [Example 40, N-(3-(7-amino-1-methyl-4-oxo-1,4-dihydropyrimido[4,5-d]pyrimidin-3(2H)-yl)-2,4-difluorophenyl)-5-chloro-2-methoxypyridine-3-sulfonamide]
10 | 100 to 300 nM | Cn1c(=O)n(-c2c(F)ccc(NS(=O)(=O)c3cc(C(F)(F)F)ccc3Cl)c2F)c(=O)c2cnc(N)nc21 [Example 49, N-(3-(7-amino-1-methyl-2,4-dioxo-1,2-dihydropyrimido[4,5-d]pyrimidin-3(4H)-yl)-2,4-difluorophenyl)-2-chloro-5-(trifluoromethyl)benzenesulfonamide]
11 | 100 to 300 nM | CN1CN(c2c(F)ccc(NS(=O)(=O)c3cc(Cl)ccc3Cl)c2F)C(=O)c2cnc(N)nc21 [Example 39, N-(3-(7-amino-1-methyl-4-oxo-1,4-dihydropyrimido[4,5-d]pyrimidin-3(2H)-yl)-2,4-difluorophenyl)-2,5-dichlorobenzenesulfonamide]
12 | 100 to 300 nM | COc1ncc(Cl)cc1S(=O)(=O)Nc1ccc(F)c(N2CN(C3CC3)c3nc(N)ncc3C2=O)c1F [Example 60, N-(3-(7-amino-1-cyclopropyl-4-oxo-1,4-dihydropyrimido[4,5-d]pyrimidin-3(2H)-yl)-2,4-difluorophenyl)-5-chloro-2-methoxypyridine-3-sulfonamide]

More lines, now with the values behind:

Row | Structure (SMILES) | IC50
13 | Cc1ccc(Cl)cc1S(=O)(=O)Nc1ccc(F)c(-n2c(=O)c3cnc(N)nc3n(C)c2=O)c1F [Example 52, N-(3-(7-amino-1-methyl-2,4-dioxo-1,4-dihydropyrimido[4,5-d]pyrimidin-3(2H)-yl)-2,4-difluorophenyl)-5-chloro-2-methylbenzenesulfonamide] | < 100 nM
14 | CNc1ncc2c(=O)n(-c3c(F)ccc(NS(=O)(=O)c4cc(Cl)cnc4OC)c3F)c(=O)n(C)c2n1 [Example 58, 5-chloro-N-(2,4-difluoro-3-(1-methyl-7-(methylamino)-2,4-dioxo-1,4-dihydropyrimido[4,5-d]pyrimidin-3(2H)-yl)phenyl)-2-methoxypyridine-3-sulfonamide] | 100 to 300 nM
15 | Cc1nn(-c2c(F)ccc(NS(=O)(=O)c3cc(Cl)ccc3Cl)c2F)c(=O)c2cnc(N)nc12 [Example 34, N-(3-(2-amino-8-methyl-5-oxopyrimido[4,5-d]pyridazine-6(5H)-yl)-2,4-difluorophenyl)-2,5-dichlorobenzenesulfonamide] | < 100 nM
16 | Cn1c(=O)n(-c2c(F)ccc(NS(=O)(=O)c3ccc(Cl)s3)c2F)c(=O)c2cnc(N)nc21 [Example 50, N-(3-(7-amino-1-methyl-2,4-dioxo-1,4-dihydropyrimido[4,5-d]pyrimidin-3(2H)-yl)-2,4-difluorophenyl)-5-chlorothiophene-2-sulfonamide] | < 100 nM
17 | Cc1nn(C)c(Cl)c1S(=O)(=O)Nc1ccc(F)c(N2CN(C3CC3)c3nc(N)ncc3C2=O)c1F [Example 62, N-(3-(7-amino-1-cyclopropyl-4-oxo-1,4-dihydropyrimido[4,5-d]pyrimidin-3(2H)-yl)-2,4-difluorophenyl)-5-chloro-1,3-dimethyl-1H-pyrazole-4-sulfonamide] | > 1000 nM
18 | Cn1c(=O)n(-c2c(F)ccc(NS(=O)(=O)c3cc(F)ccc3F)c2F)c(=O)c2cnc(N)nc21 [Example 54, N-(3-(7-amino-1-methyl-2,4-dioxo-1,4-dihydropyrimido[4,5-d]pyrimidin-3(2H)-yl)-2,4-difluorophenyl)-2,5-difluorobenzenesulfonamide] | 100 to 300 nM
19 | Nc1ncc2c(=O)n(-c3c(F)ccc(NS(=O)(=O)c4cc(Cl)ccc4Cl)c3F)ccc2n1 [Example 24, N-(3-(2-amino-5-oxopirido[4,3-d]pyrimidin-6(5H)-yl)-2,4-difluorophenyl)-2,5-dichlorobenzenesulfonamide] | < 100 nM
20 | Cc1nn(-c2c(F)ccc(NS(=O)(=O)c3cn(C)nc3C(F)(F)F)c2F)c(=O)c2cnc(N)nc12 [Example 35, N-(3-(2-amino-8-methyl-5-oxopyrimido[4,5-d]pyridazine-6(5H)-yl)-2,4-difluorophenyl)-1-methyl-3-(trifluoromethyl)-1H-pyrazole-4-sulfonamide] | > 1000 nM
21 | Cn1c(=O)n(-c2c(F)ccc(NS(=O)(=O)c3ccc(Cl)cc3Cl)c2F)c(=O)c2cnc(N)nc21 [Example 55, N-(3-(7-amino-1-methyl-2,4-dioxo-1,2-dihydropyrimido[4,5-d]pyrimidin-3(4H)-yl)-2,4-difluorophenyl)-2,4-dichlorobenzenesulfonamide] | 100 to 300 nM
22 | COc1ncc(Cl)cc1S(=O)(=O)Nc1ccc(F)c(-n2cc(Br)c3nc(N)ncc3c2=O)c1F [Example 33, N-(3-(2-amino-8-bromo-5-oxopirido[4,3-d]pyrimidin-6(5H)-yl)-2,4-difluorophenyl)-5-chloro-2-methoxypyridine-3-sulfonamide] | > 1000 nM
23 | Nc1ncc2c(=O)n(-c3c(F)ccc(NS(=O)(=O)c4ccc(Cl)s4)c3F)ccc2n1 [Example 31, N-(3-(2-amino-5-oxopirido[4,3-d]pyrimidin-6(5H)-yl)-2,4-difluorophenyl)-5-chlorothiophene-2-sulfonamide] | 100 to 300 nM
24 | COc1ncc(C#N)cc1S(=O)(=O)Nc1ccc(F)c(-n2c(=O)c3cnc(N)nc3n(C)c2=O)c1F [Example 47, N-(3-(7-amino-1-methyl-2,4-dioxo-1,4-dihydropyrimido[4,5-d]pyrimidin-3(2H)-yl)-2,4-difluorophenyl)-5-cyano-2-methoxypyridine-3-sulfonamide] | < 100 nM
25 | Cn1cc(S(=O)(=O)Nc2ccc(F)c(-n3c(=O)c4cnc(N)nc4n(C)c3=O)c2F)cn1 [Example 56, N-(3-(7-amino-1-methyl-2,4-dioxo-1,4-dihydropyrimido[4,5-d]pyrimidin-3(2H)-yl)-2,4-difluorophenyl)-1-methyl-1H-pyrazole-4-sulfonamide] | > 1000 nM
26 | COc1ncc(Cl)cc1S(=O)(=O)Nc1ccc(F)c(-n2cc(C)c3nc(N)ncc3c2=O)c1F [Example 21, N-(3-(2-amino-8-methyl-5-oxopirido[4,3-d]pyrimidin-6(5H)-yl)-2,4-difluorophenyl)-5-chloro-2-methoxypyridine-3-sulfonamide] | < 100 nM
27 | CN1C(=O)Cc2cc(S(=O)(=O)Nc3ccc(F)c(-n4c(=O)c5cnc(N)nc5n(C)c4=O)c3F)ccc21 [Example 53, N-(3-(7-amino-1-methyl-2,4-dioxo-1,4-dihydropyrimido[4,5-d]pyrimidin-3(2H)-yl)-2,4-difluorophenyl)-1-methyl-2-oxoindoline-5-sulfonamide] | > 1000 nM
